For 59 compounds, IC50, LD50 and inhibition in vivo results are on record in patent US4902700A, “Thiazole derivative and leukotriene antagonist containing the same as the effective ingredients” (Mitsubishi Kasei Corporation, priority 1985, dated 1990).

The structures appear in SMILES notation. Structures can show the parent of a compound that is named as a salt. Some results are limits rather than exact numbers.

One series relates to SRS. The series is described as follows: SRS antagonistic action in vitro (isolated guinea pig ileum shrinkage). The note with it: conc. attenuating control shrinkage to 50% (IC50), Tables 2-1 to 2-4, head prints no unit, read-out: Anti-SRS action [minimum effective conc.]. How it is done: The ileum end portion of a male Hartley-strain guinea pig weighing 200-450 g was extirpated and after washing its lumen, the ileum was mounted within 5 ml of a tissue bath containing a Tylord solution comprising the following components. […] For removing shrinkage with hystamine and acetylcholine, 10^-7 g/ml of mepylamin and 5×10^-8 g/ml of atropin were added to the above buffer. […] The ileum was loaded passively with 0.5 g of tension and the ileum shrinkage reaction to SRS extracted from guinea pig lung was obtained. The persistent shrinkage height by one unit of SRS (corresponding to 5 ng of hystamine) was used as control.
On to `O=C(O)[C@H]1CCCC[C@H]1C(=O)Nc1cccc(/C=C/c2nc3ccccc3s2)c1` (relative stereo) [compound 3], for which the IC50 turned out to be 5e-08 M.

Regarding `O=C(O)c1ccccc1C(=O)Nc1cccc(/C=C/c2nc3ccccc3s2)c1` [compound 2], the IC50 is 5e-09 M.

With `O=C(O)/C=C\C(=O)Nc1cccc(/C=C/c2nc(-c3ccccc3)cs2)c1` [compound 34], the IC50 came to 2e-08 M.

In the case of `Cc1csc(/C=C/c2cccc(NC(=O)/C=C\C(=O)O)c2)n1` [compound 54], the IC50 was 5e-07 M.

`O=C(O)/C=C/C(=O)Nc1cccc(/C=C/c2nc3ccccc3s2)c1` [compound 167]: the IC50 stood at 2e-07 M.

In the case of `O=C(O)C(=O)Nc1cccc(/C=C/c2nc3ccccc3s2)c1` [compound 168], the IC50 came to 1e-07 M.

As to `COC(=O)CCC(=O)Nc1cccc(/C=C/c2nc3ccccc3s2)c1` [compound 192], the IC50 came out at 5e-07 M.

In the case of `CCCCC(CC(=O)Nc1cccc(/C=C/c2nc3ccccc3s2)c1)C(=O)O` (stereo not shown) [compound 227], the IC50 was 5e-08 M.

As for `Cc1ccc2sc(/C=C/c3cccc(NC(=O)c4ccccc4C(=O)O)c3)nc2c1` [compound 231], the IC50 turned out to be 5e-09 M.

Regarding `Cc1cc(C(=O)O)c(C(=O)Nc2cccc(/C=C/c3nc(-c4ccccc4)cs3)c2)cc1C` [compound 253], the IC50 was 5e-08 M.

Take `CCCCCCc1csc(/C=C/c2cccc(NC(=O)c3ccccc3C(=O)O)c2)n1` [compound 287]: the IC50 is 2e-05 M.

Consider `CCCCCCCc1csc(/C=C/c2cccc(NC(=O)c3ccccc3C(=O)O)c2)n1` [compound 291], for which the IC50 stood at 1e-07 M.

With `CC(C)(C)c1csc(/C=C/c2cccc(NC(=O)CCCC(=O)O)c2)n1` [compound 298], the IC50 is 5e-05 M.

Consider `CC(C)c1csc(/C=C/c2cccc(NC(=O)CC(C(=O)O)c3ccccc3)c2)n1` (stereo not shown) [compound 307], for which the IC50 was found to be 2e-09 M.

For the compound `CCc1nc(/C=C/c2cccc(NC(=O)c3cc(C)c(C)cc3C(=O)O)c2)sc1C` [compound 328], the IC50 is 5e-09 M.

Take `CCCc1nc(/C=C/c2cccc(NC(=O)/C=C\C(=O)O)c2)sc1CC` [compound 332]: the IC50 was determined as 1e-07 M.

Staying with this series, now noted: conc. attenuating control shrinkage to 50% (IC50), Tables 2-6 to 2-11 and Table 3, read-out: Anti-SRS action [minimum effective conc. (M)].
Regarding `O=C(O)[C@H]1CCCC[C@H]1C(=O)Nc1cccc(/C=C/c2nc3ccccc3s2)c1` (relative stereo) [compound 414, 2-[trans-3-(cis-2-carboxycyclohexanoyl)aminostyryl]benzothiazole N-methyl-D-glucamine salt], the IC50 stood at 1e-06 M.

Consider `O=C(O)/C=C\C(=O)Nc1cccc(NCc2nc3ccccc3s2)c1` [compound 150], for which the IC50 came to 2e-07 M.

Turning to `CC(C)CCOC(=O)/C=C\C(=O)Nc1cccc(/C=C/c2nc3ccccc3s2)c1` [compound 189, 2-[trans-3-(cis-3-isoamyloxycarbonylpropenamide)styryl]benzothiazole], the IC50 turned out to be 1e-06 M.

In the case of `CCOC(=O)CCCNc1cccc(/C=C/c2nc3ccccc3s2)c1` [compound 199, 2-[trans-3-(3-ethoxycarbonylpropyl)aminostyryl]benzothiazole], the IC50 stood at 2e-07 M.

Take `O=C(O)/C=C\C(=O)Nc1cccc(/C=C/c2nc3ccccc3s2)c1` [compound 213, 2-[trans-3-(cis-3-carboxypropenamide)styryl]benzothiazole sodium salt]: the IC50 came out at 5e-08 M.

For the compound `O=C(CC1(C(=O)O)CCCCC1)Nc1cccc(CCc2nc3ccccc3s2)c1` [compound 358], the IC50 amounted to 1e-08 M.

As to `O=C(O)/C=C\C(=O)Nc1cccc(OCc2nc3ccccc3s2)c1` [compound 368], the IC50 was determined as 1e-07 M.

Turning to `O=C(O)/C=C\C(=O)Nc1cccc(COCc2nc3ccccc3s2)c1` [compound 369], the IC50 amounted to 1e-05 M.

`O=C(O)CCCNc1cccc(CCc2nc3ccccc3s2)c1` [compound 376]: the IC50 was 5e-07 M.

On to `Cc1nc(C=Cc2cccc(NCCCC(=O)O)c2)sc1C` [compound 377], for which the IC50 worked out at 2e-07 M.

For the compound `CCc1csc(C=Cc2cccc(NCCCC(=O)O)c2)n1` [compound 387], the IC50 is 1e-08 M.

On to `CCCCc1csc(C=Cc2cccc(NCCCC(=O)O)c2)n1` [compound 389], for which the IC50 came out at 1e-07 M.

`O=C(O)CCCCNc1cccc(/C=C/c2nc3ccccc3s2)c1` [compound 398]: the IC50 came out at 2e-07 M.

On to `O=C(O)CCCCCc1cccc(/C=C/c2nc3ccccc3s2)c1` [compound 411], for which the IC50 amounted to 1e-05 M.

Consider `O=C(CCCO)Nc1cccc(/C=C/c2nc3ccccc3s2)c1` [compound 422, 2-[trans-3-(4-hydroxybutanoylamino)styryl]benzothiazole], for which the IC50 amounted to 1e-06 M.

`OCCCCOc1cccc(/C=C/c2nc3ccccc3s2)c1` [compound 423, 2-[trans-3-(4-hydroxybutoxy)styryl]benzothiazole]: the IC50 stood at 1e-05 M.

Regarding `C(=C\c1nc2ccccc2s1)/c1cccc(NCCCc2nnn[nH]2)c1` [compound 424, 2-[trans-3-(3-(5-tetrazolyl)propylamino)styryl]benzothiazole], the IC50 is 5e-07 M.

For `O=C(O)CCNc1cccc(/C=C/c2nc3ccccc3s2)c1` [compound 426, 2-[trans-3-(2-carboxyethylamino)styryl]benzothiazole sodium salt], the IC50 is 2e-07 M.

Test system in a further series: not listed separately
In words: Acute toxicity test, oral. The following applies: mouse, in vivo, male ddy mice, 1% tragacanth suspension, 7 days. As for the experimental part: With 4 to 5 ddy-strain male mice of 6 weeks old as one group, the compound of the present invention was orally administered as a suspension in 1% tragacanth solution, and observation was conducted for 7 days and the number of dead mice was examined to obtain the results shown in Table 5.
As usually defined, the LD50 is the dose expected to kill half of the subjects tested. A higher LD50 goes with a less toxic substance. `O=C([O-])CCCNc1cccc(/C=C/c2nc3ccccc3s2)c1.[Na+]` displayed an LD50 at 168 h of 2000 to 3000 mg/kg.

Compound `O=C(O)[C@H]1CCCC[C@H]1C(=O)Nc1cccc(/C=C/c2nc3cc(Cl)ccc3s2)c1` (relative stereo) [compound 26] yielded a 50% lethal dose (LD50) at 168 h greater than 3000 mg/kg.

The compound `O=C(O)[C@H]1CCCC[C@H]1C(=O)Nc1cccc(/C=C/c2nc3ccccc3s2)c1` (relative stereo) [compound 216] came in with a 50% lethal dose (LD50) at 168 h greater than 3000 mg/kg.

`Cc1ccc2sc(/C=C/c3cccc(NC(=O)[C@@H]4CCCC[C@@H]4C(=O)O)c3)nc2c1` (relative stereo) [compound 232] displayed a median lethal dose (LD50) at 168 h of 3000 mg/kg.

`O=C(O)[C@H]1CCCC[C@H]1C(=O)Nc1cccc(/C=C/c2nc(-c3ccccc3)cs2)c1` (relative stereo) [compound 248] had an LD50 at 168 h greater than 3000 mg/kg.

`O=C(O)[C@H]1CC=CC[C@H]1C(=O)Nc1cccc(/C=C/c2nc(-c3ccccc3)cs2)c1` (relative stereo) [compound 249]: the LD50 at 168 h is 1000 to 2000 mg/kg.

As to `Cc1nc(/C=C/c2cccc(NC(=O)[C@H]3CCCC[C@H]3C(=O)O)c2)sc1C` (relative stereo) [compound 315], the median lethal dose (LD50) at 168 h is 1000 to 2000 mg/kg.

As to `Cc1nc(/C=C/c2cccc(NC(=O)[C@H]3CC=CC[C@H]3C(=O)O)c2)sc1C` (relative stereo) [compound 317], the LD50 at 168 h turned out to be 1030 mg/kg.

`CCc1nc(/C=C/c2cccc(NC(=O)[C@H]3CCCC[C@H]3C(=O)O)c2)sc1C` (relative stereo) [compound 324] showed an LD50 at 168 h of 1380 mg/kg.

With `O=C(Nc1cccc(CCc2nc3ccccc3s2)c1)[C@H]1CCCC[C@H]1C(=O)O` (relative stereo) [compound 355], the LD50 at 168 h turned out to be 1930 mg/kg.

`O=C(O)[C@@H]1CCCC[C@H]1C(=O)Nc1cccc(/C=C/c2nc3ccccc3s2)c1` (relative stereo) [compound 418] gave an LD50 at 168 h of less than 3000 mg/kg.

Consider `O=C(O)c1ccccc1C(=O)Nc1cccc(/C=C/c2nc3ccccc3s2)c1` [compound 2], for which the median lethal dose (LD50) at 168 h is greater than 3000 mg/kg.

For `O=C(O)/C=C\C(=O)Nc1cccc(/C=C/c2nc3ccccc3s2)c1` [compound 213, 2-[trans-3-(cis-3-carboxypropenamide)styryl]benzothiazole sodium salt], the LD50 at 168 h is greater than 3000 mg/kg.

For the compound `O=C(O)c1ccccc1C(=O)Nc1cccc(/C=C/c2nc(-c3ccccc3)cs2)c1` [compound 247], the LD50 at 168 h was greater than 3000 mg/kg.

As to `CCCCCc1csc(/C=C/c2cccc(NC(=O)c3ccccc3C(=O)O)c2)n1` [compound 281], the 50% lethal dose (LD50) at 168 h was greater than 3000 mg/kg.

On to `CC(C)c1csc(/C=C/c2cccc(NC(=O)c3ccccc3C(=O)O)c2)n1` [compound 300], for which the LD50 at 168 h fell in the range of 1000 to 2000 mg/kg.

In turn, `CC(C)c1csc(/C=C/c2cccc(NC(=O)CCCC(=O)O)c2)n1` [compound 303] displayed an LD50 at 168 h of 2000 mg/kg.

Consider `Cc1nc(/C=C/c2cccc(NC(=O)/C=C\C(=O)O)c2)sc1C` [compound 313], for which the LD50 at 168 h came to 1560 mg/kg.

Compound `Cc1nc(/C=C/c2cccc(NC(=O)c3ccccc3C(=O)O)c2)sc1C` [compound 314] showed an LD50 at 168 h of 2000 to 3000 mg/kg.

`CCc1nc(/C=C/c2cccc(NC(=O)CCC(=O)O)c2)sc1C` [compound 325] gave an LD50 at 168 h of 2000 mg/kg.

`CCc1nc(/C=C/c2cccc(NC(=O)CCCC(=O)O)c2)sc1C` [compound 326] displayed an LD50 at 168 h of less than 3000 mg/kg.

Take `O=C(O)/C=C\C(=O)Nc1cccc(CCc2nc3ccccc3s2)c1` [compound 353]: the median lethal dose (LD50) at 168 h worked out at 3310 mg/kg.

As to `CCc1nc(C=Cc2cccc(NCCCC(=O)O)c2)sc1C` [compound 382], the LD50 at 168 h is 1930 mg/kg.

The next series has as its system LTD4. In words: LTD4 antagonistic action in vivo (airway resistance increase, Konzett-Roessler). Set-up: species or system guinea pig. The following applies: Cavia porcellus, read-out: Airway resistance increase inhibition.
In the case of `O=C([O-])CCCNc1cccc(/C=C/c2nc3ccccc3s2)c1.[Na+]` [sodium salt], the inhibition in vivo at 3 mg/kg amounted to 55%.

Staying with this series, now noted: Cavia porcellus; intraduodenal, 3 mg/kg; LTD4 0.1-1.0 μg/kg i.v.; read-out: Airway resistance increase inhibition.
As for `O=C(CC1(C(=O)O)CCCCC1)Nc1cccc(/C=C/c2nc3ccccc3s2)c1` [compound 223], the inhibition in vivo at 3 mg/kg is 87%.

Consider `CCCCC(CC(=O)Nc1cccc(/C=C/c2nc3ccccc3s2)c1)C(=O)O` (stereo not shown) [compound 227], for which the inhibition in vivo at 3 mg/kg is 71%.

The same series, now with this note: Cavia porcellus; intraduodenal, 10 mg/kg; LTD4 0.1-1.0 μg/kg i.v.
As for `CCCc1csc(/C=C/c2cccc(NC(=O)c3ccccc3C(=O)O)c2)n1` [compound 272], the inhibition in vivo at 10 mg/kg stood at 37%.

The compound `CC(C)(C)c1csc(/C=C/c2cccc(NC(=O)CCC(=O)O)c2)n1` [compound 297] registered an inhibition in vivo at 10 mg/kg of 62%.

The same series, now with this note: Cavia porcellus; intraduodenal, 30 mg/kg; LTD4 0.1-1.0 μg/kg i.v.
The compound `O=C(O)/C=C\C(=O)Nc1cccc(/C=C/c2nc3ccccc3s2)c1` [compound 213, 2-[trans-3-(cis-3-carboxypropenamide)styryl]benzothiazole sodium salt] yielded an inhibition in vivo at 30 mg/kg of 51%.

`O=C(O)/C=C\C(=O)Nc1cccc(CCc2nc3ccccc3s2)c1` [compound 353] displayed an inhibition in vivo at 30 mg/kg of 79%.
